Test results reported in patent publication US11180474B2 (BRISTOL-MYERS SQUIBB COMPANY, priority 2016, dated 2021).

Tests used:
human TLR9 = target: T1, human TLR9 (Homo sapiens, UniProt Q9NR96); assay: TLR9 inhibition reporter assay (HEK-Blue cells, SEAP reporter, ODN2006 stimulation); assay type: cell-based; details: HEK-Blue cells overexpressing human TLR9, ODN2006 5 nM
T1 construct: host or cells: HEK-Blue cells
T1 sequence (Q9NR96 26-1032): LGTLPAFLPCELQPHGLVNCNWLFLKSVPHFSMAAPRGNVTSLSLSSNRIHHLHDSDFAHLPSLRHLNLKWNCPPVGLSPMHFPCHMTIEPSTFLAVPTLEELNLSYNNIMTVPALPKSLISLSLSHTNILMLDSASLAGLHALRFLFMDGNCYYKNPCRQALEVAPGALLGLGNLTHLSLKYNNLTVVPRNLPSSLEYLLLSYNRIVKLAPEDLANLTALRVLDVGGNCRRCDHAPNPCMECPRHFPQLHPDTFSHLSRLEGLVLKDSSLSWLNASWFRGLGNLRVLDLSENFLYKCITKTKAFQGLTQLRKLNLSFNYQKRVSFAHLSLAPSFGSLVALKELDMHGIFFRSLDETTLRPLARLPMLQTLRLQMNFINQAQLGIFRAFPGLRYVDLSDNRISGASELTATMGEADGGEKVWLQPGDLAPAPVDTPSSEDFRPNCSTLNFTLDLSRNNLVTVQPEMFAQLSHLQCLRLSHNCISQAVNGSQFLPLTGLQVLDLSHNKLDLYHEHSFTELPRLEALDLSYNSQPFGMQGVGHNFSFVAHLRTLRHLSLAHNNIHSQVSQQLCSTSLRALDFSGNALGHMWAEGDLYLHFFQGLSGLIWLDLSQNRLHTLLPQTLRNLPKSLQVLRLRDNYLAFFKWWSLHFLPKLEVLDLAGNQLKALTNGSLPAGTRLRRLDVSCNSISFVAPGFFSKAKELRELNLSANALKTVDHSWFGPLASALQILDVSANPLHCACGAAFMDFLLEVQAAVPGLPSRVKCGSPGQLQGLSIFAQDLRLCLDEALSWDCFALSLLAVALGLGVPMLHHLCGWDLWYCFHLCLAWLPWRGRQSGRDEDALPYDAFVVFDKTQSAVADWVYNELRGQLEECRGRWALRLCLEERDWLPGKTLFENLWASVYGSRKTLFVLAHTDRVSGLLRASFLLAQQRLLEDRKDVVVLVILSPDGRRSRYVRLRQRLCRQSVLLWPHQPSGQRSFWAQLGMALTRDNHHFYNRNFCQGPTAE
Method in brief: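 HEK-Blue cells overexpressing human TLR7, TLR8 or TLR9 carry a SEAP reporter driven by NF-κB/AP-1 sites. Compounds (0.05 nM–50 μM) were preincubated 30 min at room temperature, then cells were stimulated with gardiquimod 7.5 μM (TLR7), R848 15.9 μM (TLR8) or ODN2006 5 nM (TLR9) for 22 h at 37 °C.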

human TLR7 = target: T2, human TLR7 (Homo sapiens, UniProt Q9NYK1); assay: TLR7 inhibition reporter assay (HEK-Blue cells, SEAP reporter, gardiquimod stimulation); assay type: cell-based; details: HEK-Blue cells overexpressing human TLR7, gardiquimod 7.5 μM
T2 construct: host or cells: HEK-Blue cells
T2 sequence (Q9NYK1 27-1049): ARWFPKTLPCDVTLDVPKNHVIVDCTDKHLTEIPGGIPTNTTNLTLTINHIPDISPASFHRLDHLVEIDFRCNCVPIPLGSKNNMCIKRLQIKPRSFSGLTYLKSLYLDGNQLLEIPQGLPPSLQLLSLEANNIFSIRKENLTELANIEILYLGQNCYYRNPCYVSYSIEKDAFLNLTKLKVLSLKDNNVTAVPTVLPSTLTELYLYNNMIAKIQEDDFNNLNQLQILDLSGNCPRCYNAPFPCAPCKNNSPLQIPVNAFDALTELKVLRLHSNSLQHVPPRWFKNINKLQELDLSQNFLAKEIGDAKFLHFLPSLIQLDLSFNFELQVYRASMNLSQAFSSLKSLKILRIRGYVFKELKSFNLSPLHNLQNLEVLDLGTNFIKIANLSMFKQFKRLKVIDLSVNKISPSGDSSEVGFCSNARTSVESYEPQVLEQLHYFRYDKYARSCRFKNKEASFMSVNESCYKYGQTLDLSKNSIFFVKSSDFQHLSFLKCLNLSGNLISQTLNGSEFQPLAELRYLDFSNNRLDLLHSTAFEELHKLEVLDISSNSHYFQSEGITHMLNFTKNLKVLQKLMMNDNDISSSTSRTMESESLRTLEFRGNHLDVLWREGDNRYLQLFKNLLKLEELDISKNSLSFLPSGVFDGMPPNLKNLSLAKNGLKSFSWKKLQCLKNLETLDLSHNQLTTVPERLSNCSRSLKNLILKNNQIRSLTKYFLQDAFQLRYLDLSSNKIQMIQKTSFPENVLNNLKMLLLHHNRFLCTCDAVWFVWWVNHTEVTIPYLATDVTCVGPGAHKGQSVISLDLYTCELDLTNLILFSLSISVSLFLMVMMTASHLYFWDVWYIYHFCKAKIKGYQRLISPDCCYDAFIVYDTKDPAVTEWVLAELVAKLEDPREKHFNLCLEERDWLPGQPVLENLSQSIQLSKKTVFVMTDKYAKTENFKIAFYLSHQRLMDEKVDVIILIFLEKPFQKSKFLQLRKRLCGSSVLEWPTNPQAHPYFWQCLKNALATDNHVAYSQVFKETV
Method in brief: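 SEAP readout via HEK-Blue Detection medium after 22 h at 37 °C, 5% CO2 defines inhibition, normalized between agonist-plus-DMSO wells and a reference inhibitor. Compound dose range 0.05 nM–50 μM; TLR7 cells at 15,000/well (gardiquimod), TLR8 at 20,000/well (R848).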

IC50 (human TLR9)	IC50 (human TLR7)	Structure (SMILES)
157 nM	344 nM	COc1ccc(-c2[nH]c3ccc(C4CCN(C5CCCNCC5)CC4)cc3c2C)cc1OC (stereo not shown) [Example 103, 5-(1-(azepan-4-yl)piperidin-4-yl)-2-(3,4-dimethoxyphenyl)-3-methyl-1H-indole]
1050 nM	2170 nM	COc1ccc(-c2[nH]c3ccc(C4CCN(C5CCNC5)CC4)cc3c2C)cc1OC (stereo not shown) [Example 104, 2-(3,4-dimethoxyphenyl)-3-methyl-5-(1-(pyrrolidin-3-yl)piperidin-4-yl)-1H-indole]
385 nM	144 nM	COc1ccc(-c2[nH]c3ccc(C4CCN(C5CCCC(N)C5)CC4)cc3c2C)cc1OC (stereo not shown) [Example 105, 3-(4-(2-(3,4-dimethoxyphenyl)-3-methyl-1H-indol-5-yl)piperidin-1-yl)cyclohexan-1-amine]
307 nM	905 nM	COc1ccc(-c2[nH]c3ccc(C4CCN(C5CCCNC5)CC4)cc3c2C)cc1OC (stereo not shown) [Example 106, 5-([1,3′-bipiperidin]-4-yl)-2-(3,4-dimethoxyphenyl)-3-methyl-1H-indole]
614 nM	1310 nM	COc1ccc(-c2[nH]c3ccc(C4CCN(C[C@@H]5CCCN5)CC4)cc3c2C)cc1OC [Example 107, (S)-2-(3,4-dimethoxyphenyl)-3-methyl-5-(1-(pyrrolidin-2-ylmethyl)piperidin-4-yl)-1H-indole]
861 nM	3540 nM	COc1ccc(-c2[nH]c3ccc(C4CCN(C[C@H]5CCCN5)CC4)cc3c2C)cc1OC [Example 108, (R)-2-(3,4-dimethoxyphenyl)-3-methyl-5-(1-(pyrrolidin-2-ylmethyl)piperidin-4-yl)-1H-indole]
17000 nM	≥ 50000 nM	COc1ccc(-c2[nH]c3ccc(C4CCN(CCN(C)C5COC5)CC4)cc3c2C)cc1OC [Example 109, N-(2-(4-(2-(3,4-dimethoxyphenyl)-3-methyl-1H-indol-5-yl)piperidin-1-yl)ethyl)-N-methyloxetan-3-amine]
288 nM	1120 nM	COc1ccc(-c2[nH]c3ccc(C4CCN(CCN(C)CC(C)C)CC4)cc3c2C)cc1OC [Example 110, N-(2-(4-(2-(3,4-dimethoxyphenyl)-3-methyl-1H-indol-5-yl)piperidin-1-yl)ethyl)-N,2-dimethylpropan-1-amine]
1510 nM	387 nM	CCN(C)CCN1CCC(c2ccc3[nH]c(-c4ccc(OC)c(OC)c4)c(C)c3c2)CC1 [Example 111, 2-(4-(2-(3,4-dimethoxyphenyl)-3-methyl-1H-indol-5-yl)piperidin-1-yl)-N-ethyl-N-methylethan-1-amine]
319 nM	250 nM	COc1ccc(-c2[nH]c3ccc(C4CCN(CCN(C)CC5CC5)CC4)cc3c2C)cc1OC [Example 112, N-(cyclopropylmethyl)-2-(4-(2-(3,4-dimethoxyphenyl)-3-methyl-1H-indol-5-yl)piperidin-1-yl)-N-methylethan-1-amine]
885 nM	371 nM	CCNCC(=O)N1CCC(c2ccc3[nH]c(-c4ccc(OC)c(OC)c4)c(C)c3c2)CC1 [Example 113, 1-(4-(2-(3,4-dimethoxyphenyl)-3-methyl-1H-indol-5-yl)piperidin-1-yl)-2-(ethylamino)ethan-1-one]
882 nM	1340 nM	CNCCN1CCC(c2ccc3[nH]c(-c4ccc(OC)c(OC)c4)c(CC4CC4)c3c2)CC1 [Example 117, 2-(4-(3-(cyclopropylmethyl)-2-(3,4-dimethoxyphenyl)-1H-indol-5-yl)piperidin-1-yl)-N-methylethanamine di-trifluoroacetic acid]
2840 nM	71 nM	CCc1c(-c2ccc(OC)c(OC)c2)[nH]c2ccc(C3CCN(C(=O)CNCC(C)O)CC3)cc12 (stereo not shown) [Example 157, 1-(4-(2-(3,4-dimethoxyphenyl)-3-ethyl-1H-indol-5-yl)piperidin-1-yl)-2-((2-hydroxypropyl)amino)ethan-1-one]
678 nM	219 nM	CCc1c(-c2ccc(OC)c(OC)c2)[nH]c2ccc(C3CCN(C(=O)CN4CCC(N5CCCCC5)CC4)CC3)cc12 [Example 158, 2-([1,4′-bipiperidin]-1′-yl)-1-(4-(2-(3,4-dimethoxyphenyl)-3-ethyl-1H-indol-5-yl)piperidin-1-yl)ethan-1-one]
1900 nM	118 nM	CCc1c(-c2ccc(OC)c(OC)c2)[nH]c2ccc(C3CCN(C(=O)CNC4(CO)CCCC4)CC3)cc12 [Example 160, 1-(4-(2-(3,4-dimethoxyphenyl)-3-ethyl-1H-indol-5-yl)piperidin-1-yl)-2-((1-(hydroxymethyl)cyclopentyl)amino)ethan-1-one]
2170 nM	280 nM	CCc1c(-c2ccc(OC)c(OC)c2)[nH]c2ccc(C3CCN(C(=O)CNC45CC6CC(CC(O)(C6)C4)C5)CC3)cc12 [Example 163, 1-(4-(2-(3,4-dimethoxyphenyl)-3-ethyl-1H-indol-5-yl)piperidin-1-yl)-2-(((1r,3s,5R,7S)-3-hydroxyadamantan-1-yl)amino) ethan-1-one]
2130 nM	160 nM	CCc1c(-c2ccc(OC)c(OC)c2)[nH]c2ccc(C3CCN(C(=O)CNCC(C)(C)CO)CC3)cc12 [Example 164, 1-(4-(2-(3,4-dimethoxyphenyl)-3-ethyl-1H-indol-5-yl)piperidin-1-yl)-2-((3-hydroxy-2,2-dimethylpropyl)amino)ethan-1-one]
5170 nM	107 nM	CCc1c(-c2ccc(OC)c(OC)c2)[nH]c2ccc(C3CCN(C(=O)CNC(CO)CO)CC3)cc12 [Example 165, 2-((1,3-dihydroxypropan-2-yl)amino)-1-(4-(2-(3,4-dimethoxyphenyl)-3-ethyl-1H-indol-5-yl)piperidin-1-yl)ethan-1-one]
6440 nM	300 nM	CCc1c(-c2ccc(OC)c(OC)c2)[nH]c2ccc(C3CCN(C(=O)CN4CCCN(C(C)=O)CC4)CC3)cc12 [Example 166, 2-(4-acetyl-1,4-diazepan-1-yl)-1-(4-(2-(3,4-dimethoxyphenyl)-3-ethyl-1H-indol-5-yl)piperidin-1-yl)ethan-1-one]
33200 nM	179 nM	CCc1c(-c2ccc(OC)c(OC)c2)[nH]c2ccc(C3CCN(C(=O)CN4CCOCC4)CC3)cc12 [Example 167, 1-(4-(2-(3,4-dimethoxyphenyl)-3-ethyl-1H-indol-5-yl)piperidin-1-yl)-2-morpholinoethan-1-one]
